The source made the active and inactive calls. The calls are words filed in the database; no cut-off is given here.
Key:
HT-22 [1] = experiment: Neuroprotective activity against glutamate-induced cell death in mouse HT22 cells assessed as increase in cell viability […] after 24 hrs by MTT assay; type: functional, cell-based
HT-22 [2] = experiment: Neuroprotective activity against glutamate-induced cell death in mouse HT22 cells assessed as reduction in apoptotic cells at 50 uM after 10 to 12 hrs by Annexin V-alexa 488/propidium iodide staining based flow cytometry; type: functional
HT-22 [3] = experiment: Neuroprotective activity against glutamate-induced apoptosis in mouse HT22 cells assessed as apoptotic cells at 50 uM after 10 to 12 hrs by Annexin V-alexa 488/propidium iodide staining based flow cytometry (reference value: 57%); type: functional

**Q.** Which results are given for `CC(=O)N[C@@H](CS)C(=O)O` [ACETYLCYSTEINE]?
**A.** Activity (HT-22 [1]): Active; Activity (HT-22 [2]): Active; Activity (HT-22 [3]): 17%
